Source: patent US8613914B2, “Peptidomimetic sulfamide compounds and antiviral uses thereof” (Novartis AG, priority 2009, dated 2013)

What follows are molecules tested against HCV NS3-4A serine protease (full-length NS3-4A protein) (Hepatitis C virus genotype 1a (isolate 1) (HCV), UniProt P26664) (assay: HCV NS3-4A protease assay). Details: strain HCV-1, fluorogenic peptide substrate, read-out: Protease assay Ex. 12 IC50.
Type: biochemical, HCV genotype 1a
Method: The inhibitory activity of certain compounds of Table A against HCV NS3-4A serine protease is determined in a homogenous assay using the full-length NS3-4A protein (genotype 1a, strain HCV-1) and a commercially available internally-quenched fluorogenic peptide substrate as described by Taliani, M., et al. 1996 Anal. Biochem. 240:60-67, which is incorporated by reference in its entirety.

Sequence of HCV NS3-4A serine protease (full-length NS3-4A protein) (P26664 1027-1657): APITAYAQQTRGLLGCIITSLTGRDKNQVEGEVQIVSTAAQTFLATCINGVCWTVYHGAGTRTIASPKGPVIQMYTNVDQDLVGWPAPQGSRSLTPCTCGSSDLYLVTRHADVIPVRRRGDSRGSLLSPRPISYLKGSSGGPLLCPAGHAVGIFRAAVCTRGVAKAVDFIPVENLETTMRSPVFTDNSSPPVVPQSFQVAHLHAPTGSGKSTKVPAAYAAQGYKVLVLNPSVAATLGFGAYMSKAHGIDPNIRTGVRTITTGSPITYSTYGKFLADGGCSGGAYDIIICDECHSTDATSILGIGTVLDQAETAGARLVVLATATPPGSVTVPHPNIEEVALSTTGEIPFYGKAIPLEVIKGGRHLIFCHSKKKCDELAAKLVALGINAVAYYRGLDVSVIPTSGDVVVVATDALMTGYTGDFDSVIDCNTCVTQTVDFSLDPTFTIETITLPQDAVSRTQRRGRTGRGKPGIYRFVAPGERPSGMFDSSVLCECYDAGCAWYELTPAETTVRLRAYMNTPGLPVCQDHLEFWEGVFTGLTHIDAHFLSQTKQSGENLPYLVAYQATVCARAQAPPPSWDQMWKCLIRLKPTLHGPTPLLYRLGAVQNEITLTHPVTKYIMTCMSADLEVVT
Sequence of HCV NS3-4A serine protease (full-length NS3-4A protein) (P26664 1658-1711 partner): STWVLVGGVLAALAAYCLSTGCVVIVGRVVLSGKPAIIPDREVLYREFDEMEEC

Going from `C=C[C@@H]1C[C@]1(NC(=O)[C@@H]1C[C@@]2(CN1C(=O)[C@@H](NC(=O)[C@@H](NC(=O)[C@@H](OC)c1ccccc1)C1CCCCC1)C(C)(C)C)C(C)(C)C21CCC1)C(=O)NS(=O)(=O)N1CCCC1` [Compound 193, (5R,8S)-7-{(2S)-2-[(cyclohexyl{[(2S)-2-methoxy-2-phenylacetyl]amino}acetyl)amino]-3,3-dimethylbutanoyl}-10,10-dimethyl-N-{(1R,2S)-1-[(pyrrolidin-1-ylsulfonyl)carbamoyl]-2-vinylcyclopropyl}-7-azadispiro[3.0.4.1]decane-8-carboxamide] to `C=C[C@@H]1C[C@]1(NC(=O)[C@@H]1C[C@@]2(CN1C(=O)[C@@H](NC(=O)[C@@H](NC(=O)c1cc3ccccc3o1)C1CCCCC1)C(C)(C)C)C(C)(C)C21CCC1)C(=O)NS(=O)(=O)N1CCCC1` [Compound 191, (5R,8S)-7-[(2S)-2-({[(1-benzofuran-2-ylcarbonyl)amino](cyclohexyl)acetyl}amino)-3,3-dimethylbutanoyl]-10,10-dimethyl-N-{(1R,2S)-1-[(pyrrolidin-1-ylsulfonyl)carbamoyl]-2-vinylcyclopropyl}-7-azadispiro[3.0.4.1]decane-8-carboxamide], the IC50 rises from 25 nM to 55 nM (2.2-fold). The first is the more potent here.

Compared with `C=C[C@@H]1C[C@]1(NC(=O)[C@@H]1C[C@@]2(CN1C(=O)[C@@H](NC(=O)[C@@H](NC(=O)[C@@H]1CCCCN1C(C)C)C1CCCCC1)C(C)(C)C)C(C)(C)C21CCC1)C(=O)NS(=O)(=O)N(C)C1CC1` [Compound 53, (5R,8S)-7-[(2S)-2-{[(2S)-2-cyclohexyl-2-({[(2S)-1-isopropylpiperidin-2-yl]carbonyl}amino)acetyl]amino}-3,3-dimethylbutanoyl]-N-[(1R,2S)-1-({[cyclopropyl(methyl)amino]sulfonyl}carbamoyl)-2-vinylcyclopropyl]-10,10-dimethyl-7-azadispiro[3.0.4.1]decane-8-carboxamide], `C=C[C@@H]1C[C@]1(NC(=O)[C@@H]1C[C@@]2(CN1C(=O)[C@@H](NC(=O)[C@@H](NC(=O)[C@H]1CCCCN1C(C)C)C1CCCCC1)C(C)(C)C)C(C)(C)C21CCC1)C(=O)NS(=O)(=O)N(C)CC` [Compound 92, (5R,8S)-7-[(2S)-2-{[(2S)-2-cyclohexyl-2-({[(2R)-1-isopropylpiperidin-2-yl]carbonyl}amino)acetyl]amino}-3,3-dimethylbutanoyl]-N-[(1R,2S)-1-({[ethyl(methyl)amino]sulfonyl}carbamoyl)-2-vinylcyclopropyl]-10,10-dimethyl-7-azadispiro[3.0.4.1]decane-8-carboxamide] is 1.8-fold higher in IC50: 1.7 nM for the first, 3 nM for the second.

Going from `C=C[C@@H]1C[C@]1(NC(=O)[C@@H]1C[C@@]2(CN1C(=O)[C@@H](NC(=O)[C@@H](NC(=O)c1cc(C)nn1CC)C1CCCCC1)C(C)(C)C)C(C)(C)C21CCC1)C(=O)NS(=O)(=O)N1CCCC1` [Compound 180, (5R,8S)-7-{(2S)-2-[(cyclohexyl{[(1-ethyl-3-methyl-1H-pyrazol-5-yl)carbonyl]amino}acetyl)amino]-3,3-dimethylbutanoyl}-10,10-dimethyl-N-{(1R,2S)-1-[(pyrrolidin-1-ylsulfonyl)carbamoyl]-2-vinylcyclopropyl}-7-azadispiro[3.0.4.1]decane-8-carboxamide] to `C=C[C@@H]1C[C@]1(NC(=O)[C@@H]1C[C@@]2(CN1C(=O)[C@@H](NC(=O)[C@@H](NC(=O)[C@H]1CCCN1CC)C1CCCCC1)C(C)(C)C)C(C)(C)C21CCC1)C(=O)NS(=O)(=O)N1CCCC1` [Compound 38, (5R,8S)-7-[(2S)-2-{[(2S)-2-cyclohexyl-2-({[(2R)-1-ethylpyrrolidin-2-yl]carbonyl}amino)acetyl]amino}-3,3-dimethylbutanoyl]-10,10-dimethyl-N-{(1R,2S)-1-[(pyrrolidin-1-ylsulfonyl)carbamoyl]-2-vinylcyclopropyl}-7-azadispiro[3.0.4.1]decane-8-carboxamide], the IC50 falls from 30 nM to 3.5 nM (8.6-fold). The second is the more potent here.

Compared with `C=C[C@@H]1C[C@]1(NC(=O)[C@@H]1C[C@@]2(CN1C(=O)[C@@H](NC(=O)[C@@H](NC(=O)[C@@H]1CCCN1CC)C1CCCCC1)C(C)(C)C)C(C)(C)C21CCC1)C(=O)NS(=O)(=O)N(CC)CC` [Compound 63, (5R,8S)-7-[(2S)-2-{[(2S)-2-cyclohexyl-2-({[(2S)-1-ethylpyrrolidin-2-yl]carbonyl}amino)acetyl]amino}-3,3-dimethylbutanoyl]-N-[(1R,2S)-1-{[(diethylamino)sulfonyl]carbamoyl}-2-vinylcyclopropyl]-10,10-dimethyl-7-azadispiro[3.0.4.1]decane-8-carboxamide], `C=C[C@@H]1C[C@]1(NC(=O)[C@@H]1C[C@@]2(CN1C(=O)[C@@H](NC(=O)[C@@H](NC(=O)[C@H]1CCCCN1C(C)C)C1CCCCC1)C(C)(C)C)C(C)(C)C21CCC1)C(=O)NS(=O)(=O)N(CC)CC` [Compound 65, (5R,8S)-7-[(2S)-2-{[(2S)-2-cyclohexyl-2-({[(2R)-1-isopropylpiperidin-2-yl]carbonyl}amino)acetyl]amino}-3,3-dimethylbutanoyl]-N-[(1R,2S)-1-{[(diethylamino)sulfonyl]carbamoyl}-2-vinylcyclopropyl]-10,10-dimethyl-7-azadispiro[3.0.4.1]decane-8-carboxamide] is 3.8-fold higher in IC50: 1.2 nM for the first, 4.5 nM for the second. The first is the more potent here.

Compared with `CC[C@@H]1C[C@]1(NC(=O)[C@@H]1C[C@@]2(CN1C(=O)[C@@H](NC(=O)[C@@H](NC(=O)[C@@H]1CCCCN1C(C)C)C1CCCCC1)C(C)(C)C)C(C)(C)C21CCC1)C(=O)NS(=O)(=O)N(C)C(C)C` [Compound 141, (5R,8S)-7-[(2S)-2-{[(2S)-2-cyclohexyl-2-({[(2S)-1-isopropylpiperidin-2-yl]carbonyl}amino)acetyl]amino}-3,3-dimethylbutanoyl]-N-[(1R,2R)-2-ethyl-1-({[isopropyl(methyl)amino]sulfonyl}carbamoyl)cyclopropyl]-10,10-dimethyl-7-azadispiro[3.0.4.1]decane-8-carboxamide], `C=C[C@@H]1C[C@]1(NC(=O)[C@@H]1C[C@@]2(CN1C(=O)[C@@H](NC(=O)[C@@H](NC(=O)[C@H]1CCCN1C(C)C)C1CCCCC1)C(C)(C)C)C(C)(C)C21CCC1)C(=O)NS(=O)(=O)N1CCCC1` [Compound 16, (5R,8S)-7-[(2S)-2-{[(2S)-2-cyclohexyl-2-({[(2R)-1-isopropylpyrrolidin-2-yl]carbonyl}amino)acetyl]amino}-3,3-dimethylbutanoyl]-10,10-dimethyl-N-{(1R,2S)-1-[(pyrrolidin-1-ylsulfonyl)carbamoyl]-2-vinylcyclopropyl}-7-azadispiro[3.0.4.1]decane-8-carboxamide] is 3.5-fold lower in IC50: 8 nM for the first, 2.3 nM for the second.

`C=C[C@@H]1C[C@]1(NC(=O)[C@@H]1C[C@@]2(CN1C(=O)[C@@H](NC(=O)[C@@H](NC(=O)CC1CCCCO1)C1CCCCC1)C(C)(C)C)C(C)(C)C21CCC1)C(=O)NS(=O)(=O)N1CCCC1` (stereo partly drawn) [Compound 179, (5R,8S)-7-[(2S)-2-({cyclohexyl[(tetrahydro-2H-pyran-2-ylacetyl)amino]acetyl}amino)-3,3-dimethylbutanoyl]-10,10-dimethyl-N-{(1R,2S)-1-[(pyrrolidin-1-ylsulfonyl)carbamoyl]-2-vinylcyclopropyl}-7-azadispiro[3.0.4.1]decane-8-carboxamide] and `C=C[C@@H]1C[C@]1(NC(=O)[C@@H]1C[C@@]2(CN1C(=O)[C@@H](NC(=O)[C@@H](NC(=O)CN1CCN(C)CC1)C1CCCCC1)C(C)(C)C)C(C)(C)C21CCC1)C(=O)NS(=O)(=O)N1CCCC1` [Compound 202, (5R,8S)-7-{(2S)-2-[(cyclohexyl{[(4-methylpiperazin-1-yl)acetyl]amino}acetyl)amino]-3,3-dimethylbutanoyl}-10,10-dimethyl-N-{(1R,2S)-1-[(pyrrolidin-1-ylsulfonyl)carbamoyl]-2-vinylcyclopropyl}-7-azadispiro[3.0.4.1]decane-8-carboxamide] are within 1.5-fold of each other in IC50: 25 nM for the first, 20 nM for the second.

Compared with `C=C[C@@H]1C[C@]1(NC(=O)[C@@H]1C[C@@]2(CN1C(=O)[C@@H](NC(=O)[C@@H](NC(=O)[C@@H]1SCCN1CC)C1CCCCC1)C(C)(C)C)C(C)(C)C21CCC1)C(=O)NS(=O)(=O)N1CCCC1` [Compound 144, (5R,8S)-7-[(2S)-2-{[(2S)-2-cyclohexyl-2-({[(2S)-3-ethyl-1,3-thiazolidin-2-yl]carbonyl}amino)acetyl]amino}-3,3-dimethylbutanoyl]-10,10-dimethyl-N-{(1R,2S)-1-[(pyrrolidin-1-ylsulfonyl)carbamoyl]-2-vinylcyclopropyl}-7-azadispiro[3.0.4.1]decane-8-carboxamide], `C=C[C@@H]1C[C@]1(NC(=O)[C@@H]1C[C@@]2(CN1C(=O)[C@@H](NC(=O)[C@@H](NC(=O)C1CN(C(C)C)C1)C1CCCCC1)C(C)(C)C)C(C)(C)C21CCC1)C(=O)NS(=O)(=O)N1CCCC1` [Compound 19, (5R,8S)-7-[(2S)-2-{[(2S)-2-cyclohexyl-2-{[(1-isopropylazetidin-3-yl)carbonyl]amino}acetyl]amino}-3,3-dimethylbutanoyl]-10,10-dimethyl-N-{(1R,2S)-1-[(pyrrolidin-1-ylsulfonyl)carbamoyl]-2-vinylcyclopropyl}-7-azadispiro[3.0.4.1]decane-8-carboxamide] is 6.1-fold higher in IC50: 9 nM for the first, 55 nM for the second.

`C=C[C@@H]1C[C@]1(NC(=O)[C@@H]1C[C@@]2(CN1C(=O)[C@@H](NC(=O)[C@@H](NC(=O)c1cccc(N(C)C)n1)C1CCCCC1)C(C)(C)C)C(C)(C)C21CCC1)C(=O)NS(=O)(=O)N1CCCC1` [Compound 69, (5R,8S)-7-[(2S)-2-{[(2S)-2-cyclohexyl-2-({[6-(dimethylamino)pyridin-2-yl]carbonyl}amino)acetyl]amino}-3,3-dimethylbutanoyl]-10,10-dimethyl-N-{(1R,2S)-1-[(pyrrolidin-1-ylsulfonyl)carbamoyl]-2-vinylcyclopropyl}-7-azadispiro[3.0.4.1]decane-8-carboxamide] was tested, and the IC50 was 50 nM.
